Measured values published in US20050089524A1, “Compositions and compounds for use as molecular adjuvant for a nicotine vaccine” (priority 2002, published 2005).
Values belong to the molecule of their own block, whether it stands above or below them. Square brackets hold non-standard residues; d marks the D form. Peptide text beside a SMILES is read from it.

Assays:
[1] = Anti-nicotine antibodies in immune serum of rats (ELISA); type: in vivo, Wistar rats
Description: ii. Animal Models. Five groups of male Wistar rats (ca 275 g) were immunized every other week with: 1) PBS 2) Nic-[…]aR (Nic-SEQ ID NO:1), 3) Nic-[…]aR (Nic-SEQ ID NO:1) in Freund's adjuvant, 4) Nic-[…]aR (Nic-SEQ ID NO:2), and 5) Nic-[…]aR (Nic-SEQ ID NO:2) in Freund's adjuvant. Primary immunizations were accomplished by subcutaneous (s.c.) and intrapertioneal (i.p.) injection of 100 μg of the peptides as indicated above in the presence or absences of complete Freund's adjuvant. Boosting was performed in identical fashion at two-week internals with 100 μg of the peptides in the presence of absence of Freund's adjuvant. Sera were obtained by retro-orbital sinus puncture one week after the third injection.

[2] = target: C5a receptor (C5aR) expressed on the surface of human PMNs (human) (UniProt P21730); assay: competition with 125I-C5a on intact human PMNs
[3] = target: C5a receptor (C5aR) expressed on the surface of human PMNs (human) (UniProt P21730); assay: competition with 125I-C5a on intact human PMNs; concentration giving 50% inhibition of 125I-C5a binding
[4] = target: C5a receptor (C5aR) expressed on the surface of human PMNs (human) (UniProt P21730); assay: cell-based or functional assay
human PMNs = assay: MPO release from human PMNs; type: cell-based
Description: (§1) Pharmacologic assays. […] Statistical analysis of the values obtained from pharmacologic assays was performed using one-way analysis of variance (ANOVA).

[5] = system: 51Cr-labeled P815S (HBsAg transfectant) target cells; assay: HBsAg-specific CTL response of immunized mice (51Cr-release assay); type: in vivo, BALB/c mice; conditions: for % Specific Lysis: s.c. in PBS, boost day 21, spleen cells day 42
human umbilical artery = assay: Smooth muscle contraction of human umbilical artery; type: cell-based
Description: as §1

C5aR = target: T1, C5aR (Homo sapiens, UniProt P21730); assay: Binding affinity for C5aRs on human PMNs (125I-C5a competition)
T1 construct: endogenous in cells; host or cells: intact human PMNs (polymorphonuclear leukocytes)
T1 sequence (P21730 1-350): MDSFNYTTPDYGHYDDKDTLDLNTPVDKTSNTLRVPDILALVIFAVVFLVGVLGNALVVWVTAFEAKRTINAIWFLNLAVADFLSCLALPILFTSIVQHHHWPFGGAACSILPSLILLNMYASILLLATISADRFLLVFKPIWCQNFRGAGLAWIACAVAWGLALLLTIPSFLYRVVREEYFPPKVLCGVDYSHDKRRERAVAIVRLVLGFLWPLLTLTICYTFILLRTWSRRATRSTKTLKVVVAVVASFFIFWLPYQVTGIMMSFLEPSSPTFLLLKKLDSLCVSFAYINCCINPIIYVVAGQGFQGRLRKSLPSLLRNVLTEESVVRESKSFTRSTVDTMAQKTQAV
Description: Pharmacologic assays. C5a-like agonistic activity was assessed by the ability of the peptides to induce smooth muscle contraction of human umbilical artery and […] from human PMNs according to previously published methods (Sanderson et al., 1994, supra; Sanderson et al., J. Med. Chem. 38, 3669, 1995; Finch et al., J. Med. Chem. 40, 877, 1997). Full concentration-response curves were generated for individual peptides and natural C5a in each assay and the EC50 values (the concentration of peptide producing 50% of the maximal response to each peptide) were calculated. pD2 transforms [−log EC50 (M)] were calculated for each concentration-response curve and reported as the mean±SE. Peptide binding affinity to the C5aR was evaluated on intact human PMNs by a competition assay using ^125I-C5a according to previously described methods (Sanderson et al., 1995, supra; Finch et al., 1997, supra). Statistical analysis of the values obtained from pharmacologic assays was performed using one-way analysis of variance (ANOVA).

[6] = system: immunizing peptide and free peptides; assay: ELISA of sera from mice immunized with HBsAg CTL epitope-C5a agonist constructs; type: in vivo; conditions: 1:50 dilution of the serum
Description: Immunization protocols. Groups of six to eight BALB/c mice were given bilateral s.c. injections in the inguinal area with (100 μl each side) of a PBS solution containing 50-100 μg of the peptides. Booster injections were given s.c. in the inguinal region at 21-day intervals. Sera for Ab analysis were obtained by retro-orbital bleeds of mice under CO2 narcosis.
Antibodies to the HBsAg CTL epitope or the C5a agonist are not produced by immunization with the HBsAg CTL epitope-C5a agonist constructs. […] Thus, it was of interest to determine whether sera from mice immunized with the control peptides and epitope-C5a agonist constructs contained antibody directed against any of the peptides. […] (SEQ ID NO: 12), […]

[7] = target: T2, C5a receptor (C5aR) expressed on the surface of human PMNs (human, UniProt P21730 1-350); assay: competition with 125I-C5a on intact human PMNs; concentration giving 50% inhibition of 125I-C5a binding
T2 construct: whole, on cells; also called C5aRs
T2 sequence (looked up): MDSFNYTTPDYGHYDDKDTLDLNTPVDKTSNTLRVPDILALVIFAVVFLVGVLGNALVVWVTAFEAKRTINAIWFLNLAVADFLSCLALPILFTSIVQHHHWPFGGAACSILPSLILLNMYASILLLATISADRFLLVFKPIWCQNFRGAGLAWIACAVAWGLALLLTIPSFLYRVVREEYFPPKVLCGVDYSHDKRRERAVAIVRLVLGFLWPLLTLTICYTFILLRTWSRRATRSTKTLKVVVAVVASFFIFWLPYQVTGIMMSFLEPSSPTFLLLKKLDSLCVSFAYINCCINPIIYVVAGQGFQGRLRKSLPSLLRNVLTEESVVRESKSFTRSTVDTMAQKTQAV

[8] = target: T2, C5a receptor (C5aR) expressed on the …; assay: competition with 125I-C5a on intact human PMNs
Description: Pharmacologic activities.

[9] = target: T2, C5a receptor (C5aR) expressed on the …; assay: cell-based or functional assay
[10] = target: T2, C5a receptor (C5aR) expressed on the …; assay: cell-based or functional assay; remark: listed apart in the source
[11] = 100 μg s.c. and i.p., sera one week after the third injection

Molecule: Nic-YKQGGFLGLYSFKPMPLaR [B-cell-C5a-Nic]
dipper entries on nicotine sessions, first cycle (male Sprague-Dawley rats; 1000 mg (500 mg s.c. and 500 mg i.p.) in saline, boosted weekly for 2 weeks, nicotine 0.4 mg/kg s.c.): significantly less dipper entries than non-vaccinated rats on nicotine Sessions 2 and 3 | index of learning-elevation score for the first light (male Sprague-Dawley rats; first cycle): does not differ between vaccinated and non-vaccinated rats | dipper entries on saline sessions (male Sprague-Dawley rats; nicotine not present): does not differentially affect behavior in this preparation when nicotine is not present | Modified Minus Unmodified, BSA [1, 11]: 0 ng/mL | Modified Minus Unmodified, BSA-Nic [1, 11]: 33,943 ng/ml | Raw Data, plate coated with BSA [1, 11]: 1,298 ng/ml | Raw Data, plate coated with BSA-Nic [1, 11]: 35,241 ng/ml | antibody reactivity on other nicotine-modified peptides ([1]; in the presence of Freund's adjuvant, FIG. 7): 172,647 ng/ml

pD2 (-log EC50 (M)) [2]: 5.63 | EC50 [3]: 2340 nM | smooth muscle contraction of human umbilical artery, EC50 [4]: 10 nM | smooth muscle contraction of human umbilical artery, pD2 (-log EC50 (M)) [4]: 6.99
Molecule: C5a C-terminal decapeptide agonist analog YSFKPMPLaR

Molecule: CC[C@H](C)[C@H](N)C(=O)N1CCC[C@H]1C(=O)N[C@@H](CCC(N)=O)C(=O)N[C@@H](CO)C(=O)N[C@@H](CC(C)C)C(=O)N[C@@H](CC(=O)O)C(=O)N[C@@H](CO)C(=O)N[C@@H](Cc1c[nH]c2ccccc12)C(=O)N[C@@H](Cc1c[nH]c2ccccc12)C(=O)N[C@H](C(=O)N[C@@H](CO)C(=O)N[C@@H](CC(C)C)C(=O)N[C@@H](CCCNC(=N)N)C(=O)N[C@@H](CCCNC(=N)N)C(=O)N[C@@H](Cc1ccc(O)cc1)C(=O)N[C@@H](CO)C(=O)N[C@@H](Cc1ccccc1)C(=O)N[C@@H](CCCCN)C(=O)N1CCC[C@H]1C(=O)N[C@@H](CCSC)C(=O)N1CCC[C@H]1C(=O)N[C@@H](CC(C)C)C(=O)N[C@H](C)C(=O)N[C@@H](CCCNC(=N)N)C(=O)O)[C@@H](C)O (H-IPQSLDSWWTSLRRYSFKPMPL[dA]R-OH; N-terminus assumed)
EC50 (human PMNs; concentration resulting in 50% maximum release of myeloperoxidase): 540 nM | pD2 ± SE (human PMNs; −log EC50 (M), mean ± SE, n 3): 6.27 ± 0.29 | % Specific Lysis ([5]; Effector:Target Ratio 6.25:1): 9% | % Specific Lysis ([5]; Effector:Target Ratio 12.5:1): 14% | % Specific Lysis ([5]; Effector:Target Ratio 25:1): 23% | % Specific Lysis ([5]; Effector:Target Ratio 50:1): 32% | antigen-specific CTL response ([5]; three s.c. injections of 50 μg at 21 day intervals, no added adjuvant): generated an antigen-specific CTL response | EC50 (human umbilical artery; concentration resulting in 50% maximum contraction): 161 nM | pD2 ± SE (human umbilical artery; −log EC50 (M), mean ± SE, n 3): 6.79 ± 0.31 | EC50 (C5aR): 416 nM | IC50 (C5aR): 417 nM | serum binding to the free C5a agonist and CTL epitope peptides (ELISA) [6]: did not bind the free peptides

EC50 [7]: 0.4 nM | pD2 (-log EC50 (M)) [8]: 9.43 | MPO release from human PMNs, EC50 [9]: 3 nM | MPO release from human PMNs, pD2 (-log EC50 (M)) [9]: 8.5 | smooth muscle contraction of human umbilical artery, EC50 [10]: 2 nM | smooth muscle contraction of human umbilical artery, pD2 (-log EC50 (M)) [10]: 8.77
B1: natural C5a (ligand, UniProt P01031 678-751, looked up)
chain: TLQKKIEEIAAKYKHSVVKKCCYDGACVNNDETCEQRAARISLGPRCIKAFTECCVVASQLRANISHKDMQLGR
